Source: patent publication US20200009135A1, “THERAPEUTIC APPLICATIONS OF MALT1 INHIBITORS” (MEDIVIR AB, priority 2017, published 2020)

Tests used:
[1] = target: T1, MALT1 (Homo sapiens, UniProt Q9UDY8); test: HOIL1 cleavage assay (in-cell MALT1 protease activity, Jurkat E6-1); assay type: cell-based; conditions: Jurkat E6-1, PMA/Ionomycin-induced cleavage of HOIL1, 60 minutes
T1 construct: endogenous in cells; host or cells: Jurkat clone E6-1 (ATCC)
T1 sequence (Q9UDY8 1-824): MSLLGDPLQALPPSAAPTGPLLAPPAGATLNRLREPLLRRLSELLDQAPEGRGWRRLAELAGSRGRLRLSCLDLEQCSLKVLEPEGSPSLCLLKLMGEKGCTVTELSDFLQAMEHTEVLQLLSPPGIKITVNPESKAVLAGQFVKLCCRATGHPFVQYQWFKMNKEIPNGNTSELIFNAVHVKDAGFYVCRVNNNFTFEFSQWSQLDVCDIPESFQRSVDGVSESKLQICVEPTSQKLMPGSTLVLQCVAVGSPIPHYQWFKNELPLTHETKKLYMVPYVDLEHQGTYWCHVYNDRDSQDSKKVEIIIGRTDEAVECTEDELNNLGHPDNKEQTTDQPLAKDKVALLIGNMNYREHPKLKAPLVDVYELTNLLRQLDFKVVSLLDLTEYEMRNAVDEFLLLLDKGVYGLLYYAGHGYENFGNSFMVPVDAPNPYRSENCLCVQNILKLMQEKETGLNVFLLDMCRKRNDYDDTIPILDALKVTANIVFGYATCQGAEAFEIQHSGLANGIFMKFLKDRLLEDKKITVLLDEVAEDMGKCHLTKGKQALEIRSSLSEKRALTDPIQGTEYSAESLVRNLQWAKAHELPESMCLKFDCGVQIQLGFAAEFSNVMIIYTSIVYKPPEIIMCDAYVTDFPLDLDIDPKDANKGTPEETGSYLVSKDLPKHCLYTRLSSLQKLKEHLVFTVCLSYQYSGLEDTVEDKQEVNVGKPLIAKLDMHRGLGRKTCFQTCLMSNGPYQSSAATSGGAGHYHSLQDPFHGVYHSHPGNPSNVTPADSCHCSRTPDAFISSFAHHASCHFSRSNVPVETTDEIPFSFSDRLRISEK
Description: In-cell MALT1 protease activity, was measured as inhibition of PMA/lonomycin-induced cleavage of HOIL1. Day 1 0.75×10^6 cells/well were seeded in a 48 well plate. Day 2 cells were stimulated by PMA/lonomycin (1:500 dilution) with addition of vehicle or compound in a 5-point concentration series, 1:3 dilution.

[2] = target: T2, Full-length MALT1 enzyme (Homo sapiens, UniProt Q9UDY8); test: MALT1 biochemical assay; conditions: 2 nM enzyme, 50 μM Ac-Leu-Arg-Ser-Arg-AMC substrate
T2 construct: Full-length MALT1 enzyme at 2 nM was assayed in 50 mM HEPES
T2 sequence (Q9UDY8 1-824): T1 sequence (Q9UDY8 1-824)
Description: Full-length MALT1 enzyme at 2 nM was assayed in 50 mM HEPES, 100 mM NaCl, 0.9 M NaCitrate, 1 mM EDTA, pH 7.5, with 50 μM Ac-Leu-Arg-Ser-Arg-AMC as substrate. Compound was added in an 11-point concentration series from 100 μM to 1 nM in half-log dilution.
Compounds were distributed in 384 well plates by Echo550, and the assay was run with fluorescence readings at 460 nm, every 2 minutes for 60 minutes.

[3] = system: IL-2 expression in Jurkat (E6-1) cells; test: IL-2 expression assay (down-stream MALT1 activity, Jurkat E6-1); assay type: cell-based; conditions: Homo sapiens; Jurkat E6-1, PMA/Ionomycin stimulation, 24 hours
Description: Down-stream MALT1 activity was measured by PMA/lonomycin-induced expression of IL-2 in Jurkat (E6-1) cells. Compounds were distributed in a 96 well plate, 8-point concentration series, 1:3 dilution. Jurkat clone E6-1, 4×10^4 cells/well, were added, and stimulated by PMA/lonomycin (1:500 dilution) for 24 hours at 37° C. Measurement was performed using a MesoScale Sector S600 with the Human IL-2 Tissue Culture kit according to the manufacturers recommendation.

| IC50 [1] [µM] | IC50 [2] [nM] | Structure (SMILES) | IC50 [3] [µM] |
| --- | --- | --- | --- |
| 0.04 | 37.5 | CO[C@@H](C)c1c(NC(=O)Nc2cnc(-n3cc(CN)cn3)c(Cl)c2)cnc2cc(Cl)nn12 [Example 1, (S)-1-(6-(4-(aminomethyl)-1H-pyrazol-1-yl)-5-chloropyridin-3-yl)-3-(2-chloro-7-(1-methoxyethyl)pyrazolo[1,5-a]pyrimidin-6-yl)urea] | 0.03 |
|  |  | CO[C@@H](C)c1c(NC(=O)Nc2ccnc(C(F)(F)F)c2)cnc2cc(Cl)nn12 [Example 3, (S)-1-(2-Chloro-7-(1-methoxyethyl)pyrazolo[1,5-a]pyrimidin-6-yl)-3-(2-(trifluoromethyl)pyridin-4-yl)urea] | 0.02 |
